Reference: patent US9822128B1, “Substituted spirooxindoles” (KING SAUD UNIVERSITY, priority 2017, dated 2017)
Where two headings read alike, the source gives them in different places.

How the values were obtained:
HCT-116 = test: MTT cytotoxicity assay, colon cancer cells; type: cell-based, human; conditions: for SI: Selectivity Index from IC50 normal (VERO-B) and IC50 cancer (HCT-116)
Procedure: (§1) The cytotoxic activity of the compounds was tested against different mammalian cancer cells, prostate carcinoma cells (PC-3), hepatocellular carcinoma (HepG2) and colon cancer cells (HCT-116) and against African green monkey kidney cell line (Vero-B). The cell lines were obtained from American Type Culture Collection (ATCC). The cells were cultivated at 37° C. and 10% CO2 in DMEM (Lonza, 12-604F) medium supplemented with 10% fetal bovine serum (FBS, Lonza, Cat. No. 14-801E), 100 IU/ml penicillin and 100 μg/ml streptomycin (Lonza, 17-602E). Cisplatin (cis-diamineplatinum (II) dichloride) was used as a positive control and was obtained from Sigma then dissolved in 0.9% saline then stored as 8 mM stock solution at −20° C. The synthesized compounds were solubilized in DMSO and stored at −20° C. 0.5% crystal violet was prepared in Methanol and was used to stain the viable cells (Feoktistova, Geserick et al. 2016). Crystal violet binds to proteins and DNA in the adherent and viable cells so the stain is an indicator for the viability of the treated cells. The viability of the cells were quantified by using MTT reagent (3-(4,5-dimethylthiazol-2-yl)-2,5-diphenyl tetrazolium bromide), which measure the activity of mitochondrial dehydrogenase in the viable cells (Slater, Sawyer et al. 1963, Mosmann 1983).
(§2) Cytotoxicity was further assayed as follows. The cells were seeded in 96-well plate as 5*10^4 cells/mL (100 μL/well). A serial dilutions of tested compounds or cisplatin (100, 30, 10, 3.3, 1.1 or 0.37 μM) was added after overnight incubation of the cells at 37° C. and 5% CO2. DMSO was used as a control (0.1%). The cells were incubated for 48 hrs. After that, 15 μl of MTT (5 mg/mL PBS) was added to each well and incubated for another 4 hours. The formazan crystals were solubilized by 100 μL acidified SDS solution (10% SDS/0.01 M HCl). The absorbance was measured after 14 hours of incubation at 37° C. and 5% CO2 at 570 nm by Biotech plate reader. Each experiment was repeated three times and standard deviation was calculated (±). IC50% was calculated as the concentration that cause 50% inhibition for cell growth. The growth of the cells were monitored and the images were acquired by Gx microscopes (GXMGXD202 Inverted Microscope) (10× Eyepiece) after staining with crystal violet.

Vero-B = test: MTT cytotoxicity assay, normal kidney cell line; type: cell-based, African green monkey; conditions: read-out: VERO-B (IC50% μM)
Procedure: as §1, §2

HepG2 = test: MTT cytotoxicity assay, hepatocellular carcinoma cells; type: cell-based, human; conditions: for SI: Selectivity Index from IC50 normal (VERO-B) and IC50 cancer (HepG2)
Procedure: as §1, §2

PC-3 = test: MTT cytotoxicity assay, prostate carcinoma cells; type: cell-based, human; conditions: for SI: Selectivity Index from IC50 normal (VERO-B) and IC50 cancer (PC-3)
Procedure: as §1, §2

[1] = Homo sapiens, HCT-116, 48 h, read-out: HCT-116 (IC50% μM), MTT, 48 hrs incubation
[2] = Homo sapiens, HCT-116, 48 h, read-out: HCT-116 (IC50% μg/ml), MTT, 48 hrs incubation
[3] = read-out: HCT-116 (IC50% μM), MTT, 48 hrs incubation
[4] = Chlorocebus sabaeus, Vero B, 48 h
[5] = Homo sapiens, HCT-116, MTT, 48 hrs incubation, read-out: HCT-116 (IC50% μM)
[6] = Homo sapiens, HCT-116, MTT, 48 hrs incubation, read-out: HCT-116 (IC50% μg/ml)
[7] = Homo sapiens, HepG2, MTT, 48 hrs incubation, read-out: HepG2 (IC50% μM)
[8] = Homo sapiens, HepG2, MTT, 48 hrs incubation, read-out: HepG2 (IC50% μg/ml)
[9] = Chlorocebus sabaeus, Vero B, Table 1, MTT, 48 hrs incubation
[10] = Homo sapiens, PC-3, MTT, 48 hrs incubation, read-out: PC-3 (IC50% μM)
[11] = Homo sapiens, PC-3, MTT, 48 hrs incubation, read-out: PC-3 (IC50% μg/ml)

Row | Compound | SI (HCT-116) | IC50 (HCT-116; [5]) [µM] | IC50 (HCT-116; [6]) [µg/mL] | IC50 (HepG2; [7]) [µM] | IC50 (HepG2; [8]) [µg/mL] | SI (HepG2) | IC50 (Vero-B; [9]) [µM] | IC50 (PC-3; [10]) [µM] | IC50 (PC-3; [11]) [µg/mL] | SI (PC-3) | further results
1 | O=C(/C=C/c1ccco1)[C@H]1[C@H](c2ccco2)[C@H]2CSCN2[C@]12C(=O)Nc1ccccc12 [Compound 4k, (3R,6′S,7′S,7a′S)-7′-(furan-2-yl)-6′-((E)-3-(furan-2-yl)acryloyl)-1′,6′,7′,7a′-tetrahydro-3′H-spiro[indoline-3,5′-pyrrolo[1,2-c]thiazol]-2-one] | 1.316 |  |  |  |  |  |  |  |  |  | IC50 (HCT-116; [1]): ≥ 10 µM; IC50 (HCT-116; [2]): 10.1 µg/mL; IC50 (HCT-116; [3]): 19 ± 2 µM; IC50 (Vero-B; [4]): 25 µM
2 | O=C(/C=C/c1ccc(Br)cc1)[C@H]1[C@H](c2ccc(Br)cc2)[C@H]2CSCN2[C@]12C(=O)Nc1ccccc12 [Compound 4f, (3R,6′S,7′R,7a′S)-7′-(4-bromophenyl)-6′-((E)-3-(4-bromophenyl)acryloyl)-1′,6′,7′,7a′-tetrahydro-3′H-spiro[indoline-3,5′-pyrrolo[1,2-c]thiazol]-2-one] | 1 | 3 ± 0.5 | 1.8 | 0.8 ± 0.1 | 0.5 | 3.75 | 3 |  |  |  | 
3 | O=C(/C=C/c1cccc(Br)c1)[C@H]1[C@H](c2cccc(Br)c2)[C@H]2CSCN2[C@]12C(=O)Nc1ccccc12 [Compound 4l, (3R,6′S,7′R,7a′S)-7′-(3-bromophenyl)-6′-((E)-3-(3-bromophenyl)acryloyl)-1′,6′,7′,7a′-tetrahydro-3′H-spiro[indoline-3,5′-pyrrolo[1,2-c]thiazol]-2-one] | 1.911 | 1.57 ± 0.3 | 0.95 | 0.9 ± 0.1 | 0.5 | 3.333 | 3 | 1.5 ± 0.5 | 0.9 | 2 | 
4 | Cc1ccc(/C=C/C(=O)[C@H]2[C@H](c3ccc(C)cc3)[C@H]3CSCN3[C@]23C(=O)Nc2ccccc23)cc1 [Compound 4b, (3R,6′S,7′R,7a′S)-7′-(p-tolyl)-6′-((E)-3-(p-tolyl)acryloyl)-1′,6′,7′,7a′-tetrahydro-3′H-spiro[indoline-3,5′-pyrrolo[1,2-c]thiazol]-2-one] | 1.475 | 8 ± 1.2 | 3.8 | 3.57 ± 0.5 | 1.7 | 3.305 | 11.8 |  |  |  | 
5 | O=C(/C=C/c1ccc(C(F)(F)F)cc1)[C@H]1[C@H](c2ccc(C(F)(F)F)cc2)[C@H]2CSCN2[C@]12C(=O)Nc1ccccc12 [Compound 4n, (3R,6′S,7′R,7a′S)-7′-(4-(trifluoromethyl)phenyl)-6′-((E)-3-(4-(trifluoromethyl)phenyl)acryloyl)-1′,6′,7′,7a′-tetrahydro-3′H-spiro[indoline-3,5′-pyrrolo[1,2-c]thiazol]-2-one] | 0.8621 | 2.9 ± 0.4 | 1.7 | 0.9 ± 0.2 | 0.5 | 2.778 | 2.5 | 1 ± 0.2 | 0.6 | 2.5 | 
6 | O=C(/C=C/c1ccc(F)cc1)[C@H]1[C@H](c2ccc(F)cc2)[C@H]2CSCN2[C@]12C(=O)Nc1ccc(Br)cc12 [Compound 4p, (3R,6′S,7′R,7a′S)-5-bromo-7′-(4-fluorophenyl)-6′-((E)-3-(4-fluorophenyl)acryloyl)-1′,6′,7′,7a′-tetrahydro-3′H-spiro[indoline-3,5′-pyrrolo[1,2-c]thiazol]-2-one] | 0.9571 | 3.5 ± 0.3 | 2 | 0.8 ± 0.1 | 0.5 | 3.75 | 3 | 1.5 ± 0.1 | 0.8 | 2 | 
7 | O=C(/C=C/c1c(Cl)cccc1Cl)[C@H]1[C@H](c2c(Cl)cccc2Cl)[C@H]2CSCN2[C@]12C(=O)Nc1ccccc12 [Compound 4e, (3R,6′S,7′R,7a′S)-7′-(2,6-dichlorophenyl)-6′-((E)-3-(2,6-dichlorophenyl)acryloyl)-1′,6′,7′,7a′-tetrahydro-3′H-spiro[indoline-3,5′-pyrrolo[1,2-c]thiazol]-2-one] | 1 | 3 ± 0.3 | 1.8 | 1 ± 0.3 | 0.6 | 3 | 3 |  |  |  | 
8 | N.N.[Cl][Pt][Cl] [Cisplatin, cis-diamineplatinum (II) dichloride, reference compound] | 0.3968 |  |  |  |  | 0.9091 |  |  |  | 1 | HCT-116 (IC50% μg/ml) (HCT-116; MTT, 48 hrs incubation): 3.8 µg/mL; IC50 (HCT-116; MTT, 48 hrs incubation, read-out: HCT-116 (IC50% μM)): 12.6 ± 2 µM; HepG2 (IC50% μg/ml) (HepG2; MTT, 48 hrs incubation): 1.7 µg/mL; IC50 (HepG2; MTT, 48 hrs incubation, read-out: HepG2 (IC50% μM)): 5.5 ± 1 µM; PC-3 (IC50% μg/ml) (PC-3; MTT, 48 hrs incubation): 1.5 µg/mL; IC50 (PC-3; MTT, 48 hrs incubation, read-out: PC-3 (IC50% μM)): 5 ± 0.5 µM; IC50 (Vero-B; Table 1, MTT, 48 hrs incubation): 5 µM; IC50 (Vero-B; Table 2, MTT, 48 hrs incubation): 5 µM; IC50 (Vero-B; Table 3, MTT, 48 hrs incubation): 5 µM
9 | O=C(/C=C/c1ccc(Cl)cc1)[C@H]1[C@H](c2ccc(Cl)cc2)[C@H]2CSCN2[C@]12C(=O)Nc1ccccc12 [Compound 4c, (3R,6′S,7′R,7a′S)-7′-(4-chlorophenyl)-6′-((E)-3-(4-chlorophenyl)acryloyl)-1′,6′,7′,7a′-tetrahydro-3′H-spiro[indoline-3,5′-pyrrolo[1,2-c]thiazol]-2-one] |  | 3 ± 0.5 | 1.6 | 2 ± 0.5 | 1 | 3.5 | 7 | 2.7 ± 0.4 | 1.4 | 2.593 | 
10 | O=C(/C=C/c1ccc(F)cc1)[C@H]1[C@H](c2ccc(F)cc2)[C@H]2CSCN2[C@]12C(=O)Nc1ccccc12 [Compound 4m, (3R,6′S,7′R,7a′S)-7′-(4-fluorophenyl)-6′-((E)-3-(4-fluorophenyl)acryloyl)-1′,6′,7′,7a′-tetrahydro-3′H-spiro[indoline-3,5′-pyrrolo[1,2-c]thiazol]-2-one] | 1.2 | 5 ± 0.3 | 2.4 | 2.4 ± 0.4 | 1.2 | 2.5 | 6 | 2.5 ± 0.2 | 1.2 | 2.4 | 
11 | COc1ccc(/C=C/C(=O)[C@H]2[C@H](c3ccc(OC)cc3)[C@H]3CSCN3[C@]23C(=O)Nc2ccccc23)cc1 [Compound 4h, (3R,6′S,7′R,7a′S)-7′-(4-methoxyphenyl)-6′-((E)-3-(4-methoxyphenyl)acryloyl)-1′,6′,7′,7a′-tetrahydro-3′H-spiro[indoline-3,5′-pyrrolo[1,2-c]thiazol]-2-one] | 1.071 | 7 ± 0.9 | 3.6 | 2.25 ± 0.2 | 1.1 | 3.333 | 7.5 |  |  |  | 
12 | O=C(/C=C/c1cccs1)[C@H]1[C@H](c2cccs2)[C@H]2CSCN2[C@]12C(=O)Nc1ccccc12 [Compound 4j, (3R,6′S,7′S,7a′S)-7′-(thiophen-2-yl)-6′-((E)-3-(thiophen-2-yl)acryloyl)-1′,6′,7′,7a′-tetrahydro-3′H-spiro[indoline-3,5′-pyrrolo[1,2-c]thiazol]-2-one] | 1.241 |  |  |  |  |  |  |  |  |  | IC50 (HCT-116; [1]): ≥ 10 µM; IC50 (HCT-116; [2]): 6.7 µg/mL; IC50 (HCT-116; [3]): 14.5 ± 1.5 µM; IC50 (Vero-B; [4]): 18 µM
13 | O=C(/C=C/c1cccc([N+](=O)[O-])c1)[C@H]1[C@H](c2cccc([N+](=O)[O-])c2)[C@H]2CSCN2[C@]12C(=O)Nc1ccccc12 [Compound 4g] | 1 |  |  |  |  |  |  |  |  |  | IC50 (HCT-116; [1]): 2.5 ± 0.2 µM; IC50 (HCT-116; [2]): 1.4 µg/mL; IC50 (Vero-B; [4]): 2.5 µM
